From patent US20030134893A1, “Combination chemotherapy” (priority 1999, published 2003)
Where “and” joins values, the source holds several entries; their conditions need not be identical. Equal entries are not always repeated. Where two headings read alike, the source gives them in different places. Marks after values point to notes of the source that are not given here.

How the values were obtained:
[1] = test system: nonsmall cell lung cancer, renal cell cancer and other cancers; assay: Phase 2 program with CI-994 as a single agent
solid tumor = assay: Phase 1 dose-escalation clinical study of CI-994 (solid tumor); assay type: in vivo, human
Method: In one such study, patients were treated using a dose-escalation scheme that increased both the daily dose and the duration of treatment. The majority of patients had received extensive prior chemotherapy. The maximum-tolerated dose (MTD) was 15 mg/m^2/day when the duration of treatment was 14 consecutive days. To allow more prolonged treatment, lower doses were studied. Using a schedule of 8 weeks of continuous daily therapy, followed by a 2-week ‘drug holiday’, the MTD was 8 mg/m^2/day. […] Blood counts tended to stabilize even with continued treatment and to recover quickly when treatment was stopped.

[2] = test system: relapsed acute leukemia or other hematologic malignancy; assay: Phase 1 study of CI-994, once daily high-dose 5-day schedule; assay type: in vivo
Method: An additional Phase 1 study was conducted in patients with relapsed acute leukemia or other hematologic malignancy using a once daily high-dose 5-day dosing schedule. The MTD was 135 mg/m^2/day. […] Hematologic toxicities cannot be assessed in this patient population.

[3] = Pharmacokinetics of oral CI-994 in the solid tumor Phase 1 study, incl. food effect; assay type: in vivo, human; conditions: fasted patients
in vivo [4] = conditions: female, BALB/C, mouse, po
[5] = Route of elimination of radiolabeled drug, rats; assay type: in vivo; conditions: within 24 hours
Method: (§1) Mass balance/route of elimination studies have not been conducted in humans. Animal studies indicate that the principal route of elimination is via renal excretion, with 80% and 62% of radiolabeled drug appearing in the urine of monkeys and rats, respectively, within 24 hours.

[6] = test system: LC-12 Mouse Lung Carcinoma
[7] = Route of elimination of radiolabeled drug, monkeys; assay type: in vivo; conditions: within 24 hours
Method: as §1

in vivo [8] = conditions: female, mouse, in vivo
Method: (§2) Each agent was also evaluated alone, and treatment groups were compared to untreated controls.

[9] = test system: LC-12 squamous cell lung carcinoma tumor; assay: in vivo
Method: as §2

in vivo [10] = conditions: female, mouse, iv
Method: The test mice were obtained from Charles River Laboratories, Wilmington, Mass. On Day 0 of the test, each mouse was surgically implanted (subcutaneously) with a fragment of LC-12 squamous cell lung carcinoma tumor weighing approximately 30 to 60 mg. The tumor fragments were implanted using a 12 gauge trocar. The mice were weighed weekly, and tumor size (width and length in mm) were measured two times each week with standard calipers. Tumor mass for each animal was calculated according to the formula: [formula]
where “a” is width of the tumor in mm, and “b” is the length in mm. […] Antitumor activity was assessed according to four parameters: (1) partial tumor response (PR); (2) complete tumor response (CR); (3) tumor-free survival (TF); and (4) tumor growth delay (TL). Tumor growth delay is expressed as a T−C value, where T is the median days required for the treatment group tumors to reach a predetermined size (e.g., 750 mg), and C is the median days for the control group tumors to reach this size. From the tumor growth delay value, the net log10 tumor cell kill is calculated as follows:
where Td is the days for the tumor mass to double, and Rx is the total days of treatment. […] The conversion of the T−C values to log10 cell kill is possible because the Td for tumors regrowing after treatment is approximately the same as that for untreated control mice. […]

[11] = CI-994 7.5 mg/kg/day oral Days 8-12,15-19, 22-26
[12] = CI-994 15.0 mg/kg/day oral Days 8-12,15-19, 22-26
[13] = CI-994 30.0 mg/kg/day oral Days 8-12,15-19, 22-26
[14] = CI-994 60.0 mg/kg/day oral Days 8-12,15-19, 22-26
[15] = CI-994 60.0 mg/kg/day oral Days 8-12,15-19, 22-26, 60 mg/kg/day
[16] = CI-994 15 mg/kg/day Days 11-15,18-22,25-29
[17] = Carboplatin 15 mg/kg/day ip Days 8-12
[18] = Carboplatin 20 mg/kg/day ip Days 8-12
[19] = Carboplatin 30 mg/kg/day Days 11-15
[20] = Paclitaxel 15 mg/kg/day Days 11-15

CC(=O)Nc1ccc(C(=O)Nc2ccccc2N)cc1 [CI-994, 4-acetylamino-N-(2′-aminophenyl)-benzamide]
clinical benefit ([1]; 8 mg/m^2 given orally daily): Clinical benefit has been reported in patients with renal cell cancer | dose-limiting toxicity ([1]; 8 mg/m^2 given orally daily): Thrombocytopenia | infrequent neurologic adverse events ([1]; 8 mg/m^2 given orally daily): paresthesias, confusion, and hallucinations | objective responses ([1]; 8 mg/m^2 given orally daily): Objective responses have been seen in patients with nonsmall cell lung cancer | dose increases tolerated by some patients ([1]; oral daily, starting from 8 mg/m^2): 10 mg/m^2 | MTD (solid tumor; 8 weeks of continuous daily therapy, followed by a 2-week drug holiday, patients): 8 mg/m^2/day | maximum-tolerated dose (MTD) (solid tumor; duration of treatment 14 consecutive days, patients): 15 mg/m^2/day | cumulative toxicity (solid tumor; human, in vivo): no evidence of cumulative toxicity | dose-limiting toxicity (solid tumor; human, in vivo): thrombocytopenia or neutropenia | other toxicities (solid tumor; human, in vivo): nausea, vomiting, diarrhea, anorexia, fatigue, mucositis, headache, dehydration, and increases in liver and renal function test values | time of occurrence of the dose-limiting toxicity after the start of therapy (solid tumor; human, in vivo): ≤ 1 month | responses (solid tumor; patients, majority with extensive prior chemotherapy): one partial response in a heavily pretreated patient with NSCLC and a minor response in one patient each with renal cell cancer and NSCLC | dose-limiting toxicity ([2]; in vivo): acute CNS toxicity manifested as sedation and somnolence | other adverse events ([2]; in vivo): nausea, vomiting, hypotension resulting from dehydration, hypocalcemia, headache, and in one patient each, acute pancreatitis, a pyramidal syndrome characterized by hyperreflexia and bilateral Babinski reflexes, and sepsis | MTD ([2]; once daily high-dose 5-day dosing schedule, patients): 135 mg/m^2/day | tumor lysis syndrome ([2]; patients with AML): Two patients with AML developed tumor lysis syndrome, resulting in one death | dose dependence of terminal elimination half-life and apparent clearance rate [3]: independent of the dose administered | maximum plasma concentrations with increasing dose levels [3]: less than dose-proportional | time to maximum blood level after ingestion ([3]; preliminary results): 1 to 2 h | half-life ([3]; human, plasma, preliminary results, read-out: terminal elimination half-life (converted)): ~15 h | MTD at 15 days (in vivo [4]): 60 mg/kg | radiolabeled drug appearing in the urine [5]: 62% | CR (complete response) [6, 11]: 2/10 | Net Log10 Kill [6, 11]: −1.2 log10 | No. Tumor Free (Day 71) [6, 11]: 2/10 | No. of Deaths [6, 11]: 0/10 | PR (partial response) [6, 11]: 0/10 | T-C (days to reach 750 mg) [6, 11]: 1.0 days | CR (complete response) [6, 12]: 1/10 | Net Log10 Kill [6, 12]: −1.3 log10 | No. Tumor Free (Day 71) [6, 12]: 1/10 | No. of Deaths [6, 12]: 0/10 | PR (partial response) [6, 12]: 0/10 | T-C (days to reach 750 mg) [6, 12]: 0.9 days | complete responses ([6]; CI-994 30 mg/kg): 20% | partial responses ([6]; CI-994 30 mg/kg): 10% | CR (complete response) [6, 13]: 2/10 | Net Log10 Kill [6, 13]: −0.7 log10 | No. Tumor Free (Day 71) [6, 13]: 2/10 | No. of Deaths [6, 13]: 0/10 | PR (partial response) [6, 13]: 1/10 | T-C (days to reach 750 mg) [6, 13]: 8.2 days | complete responses ([6]; CI-994 60 mg/kg (MTD)): 50% | CR (complete response) [6, 14]: 5/10 | No. of Deaths [6, 14]: 0/10 | T-C (days to reach 750 mg) [6, 14]: 19.4 days | No. Tumor Free (Day 71) [6, 15]: 5/10 | PR (partial response) [6, 15]: no partial responses and 0/10 | antitumor activity ([6]; lower CI-994 doses (below 30 mg/kg)): Little antitumor activity | % Weight Change ([6]; mouse, in vivo, po, 7.5 mg/kg/day): +4.4% | % Weight Change ([6]; mouse, in vivo, po, 15 mg/kg/day): +4.9% | % Weight Change ([6]; mouse, in vivo, po, 30 mg/kg/day): +2.0% | % Weight Change ([6]; mouse, in vivo, po, 60 mg/kg/day): −1.5% | radiolabeled drug appearing in the urine [7]: 80% | MTD (in vivo [8]; BALB/C): 60 mg/kg/day | CR (complete response) [9, 16]: 0 | Net log10 Kill [9, 16]: −1.3 log10 | No. Tumor Free (40 days after the last treatment) [9, 16]: 0 | Nonspecific Deaths [9, 16]: 0/10 | PR (partial response) [9, 16]: 0 | T-C (days to reach 750 mg) [9, 16]: 4.6 days | complete response rate ([9]; CI-994 60 mg/kg/day (MTD)): 30% | T-C (days to reach 750 mg) ([9]; CI-994 60 mg/kg/day Days 11-15,18-22,25-29): 16.2 days | % Weight Change ([9]; mouse, in vivo, 15 mg/kg/day): +4.0% | % Weight Change ([9]; mouse, in vivo, 30 mg/kg/day): 13.4% | % Weight Change ([9]; mouse, in vivo, 60 mg/kg/day): 16.2%

N.N.O=C([O-])C1(C(=O)[O-])CCC1.[Pt+2] [Carboplatin, carboplatin, reference compound]
% Weight Change [6, 17]: −2.0% | CR (complete response) [6, 17]: 1/10 | Net Log10 Kill [6, 17]: +0.3 log10 | No. Tumor Free (Day 71) [6, 17]: 0/9 | No. of Deaths [6, 17]: 1/10^h | PR (partial response) [6, 17]: no partial responses and 0/10 | T-C (days to reach 750 mg) [6, 17]: 8.3 days | % Weight Change [6, 18]: −5.5% | CR (complete response) [6, 18]: 2/10 | Net Log10 Kill [6, 18]: +0.1 log10 | No. Tumor Free (Day 71) [6, 18]: 2/10 | No. of Deaths [6, 18]: 0/10 | PR (partial response) [6, 18]: 1/10 | T-C (days to reach 750 mg) [6, 18]: 5.9 days | complete responses ([6]; carboplatin 20 mg/kg (MTD)): 20% | partial responses ([6]; carboplatin 20 mg/kg (MTD)): 10% | complete responses ([6]; carboplatin at 75% of its MTD (15 mg/kg)): Ten percent | MTD of carboplatin ([6]; ip, once a day, for 5 days): 20 mg/kg | % Weight Change [9, 19]: −3.9% | Net log10 Kill [9, 19]: 0.3 log10 | No. Tumor Free (40 days after the last treatment) [9, 19]: 0 | Nonspecific Deaths [9, 19]: 0/10 | T-C (days to reach 750 mg) [9, 19]: 6.9 days | MTD of carboplatin ([9]; given alone): 30 mg/kg

CC(=O)O[C@H]1C(=O)[C@@]2(C)[C@H]([C@H](OC(=O)c3ccccc3)[C@]3(O)C[C@H](OC(=O)[C@H](O)[C@@H](NC(=O)c4ccccc4)c4ccccc4)C(C)=C1C3(C)C)[C@]1(OC(C)=O)CO[C@@H]1C[C@@H]2O [Taxol, paclitaxel, reference compound]
MTD (in vivo [10]): 20 mg/kg/day | MTD (in vivo [8]; 15 mg/kg): 15 mg/kg | Net log10 Kill [9, 20]: 0.0 log10 | No. Tumor Free (40 days after the last treatment) [9, 20]: 0 | Nonspecific Deaths [9, 20]: 0/10 | T-C (days to reach 750 mg) [9, 20]: 3.7 days
